From US11987564B2, “PTPRD inhibitors and uses thereof” (United States Government as represented by the Department …, priority 2021, dated 2024)
Read-outs that look alike come from different tables or passages of the source.

Legend:
PTPRS = PTPRS (Homo sapiens, UniProt Q13332); experiment: pNPP hydrolysis by recombinant PTPRS phosphatase; format: biochemical
Description: (§1) Human […] ([…]-pY-[…]) phosphopeptide (Pierce/ThermoFisher) were synthesized.

recombinant PTPRD = recombinant PTPRD (Homo sapiens, UniProt P23468); experiment: pNPP hydrolysis by recombinant PTPRD phosphatase
Description: (§2) Phosphatase assays: Data for each assay type (3 wells/experimental condition, read using a Spectromax plate reader) was plotted vs time, and results derived from the slopes of linear regions were reported from triplicate independent experiments.
(§3) For assays of compound ligands that were likely pseudo-irreversible, 18 min preincubations were also added. For work determining the effect of flavonoids on pNPP hydrolysis, a 96 well half-area plate was prepared by first filling each well to be tested with 18 μL of 50 μM pNPP and 25 uL of running buffer, and 2 μL of DMSO containing the desired concentration of flavonoid and/or peptide. PTPRD phosphatase was diluted 1:50 in a dilution buffer.

PTPRJ = target: T1, PTPRJ (Homo sapiens, UniProt Q12913); experiment: pNPP hydrolysis by PTPRJ phosphatase; format: biochemical
T1 construct: purchased
T1 sequence (Q12913 36-1337): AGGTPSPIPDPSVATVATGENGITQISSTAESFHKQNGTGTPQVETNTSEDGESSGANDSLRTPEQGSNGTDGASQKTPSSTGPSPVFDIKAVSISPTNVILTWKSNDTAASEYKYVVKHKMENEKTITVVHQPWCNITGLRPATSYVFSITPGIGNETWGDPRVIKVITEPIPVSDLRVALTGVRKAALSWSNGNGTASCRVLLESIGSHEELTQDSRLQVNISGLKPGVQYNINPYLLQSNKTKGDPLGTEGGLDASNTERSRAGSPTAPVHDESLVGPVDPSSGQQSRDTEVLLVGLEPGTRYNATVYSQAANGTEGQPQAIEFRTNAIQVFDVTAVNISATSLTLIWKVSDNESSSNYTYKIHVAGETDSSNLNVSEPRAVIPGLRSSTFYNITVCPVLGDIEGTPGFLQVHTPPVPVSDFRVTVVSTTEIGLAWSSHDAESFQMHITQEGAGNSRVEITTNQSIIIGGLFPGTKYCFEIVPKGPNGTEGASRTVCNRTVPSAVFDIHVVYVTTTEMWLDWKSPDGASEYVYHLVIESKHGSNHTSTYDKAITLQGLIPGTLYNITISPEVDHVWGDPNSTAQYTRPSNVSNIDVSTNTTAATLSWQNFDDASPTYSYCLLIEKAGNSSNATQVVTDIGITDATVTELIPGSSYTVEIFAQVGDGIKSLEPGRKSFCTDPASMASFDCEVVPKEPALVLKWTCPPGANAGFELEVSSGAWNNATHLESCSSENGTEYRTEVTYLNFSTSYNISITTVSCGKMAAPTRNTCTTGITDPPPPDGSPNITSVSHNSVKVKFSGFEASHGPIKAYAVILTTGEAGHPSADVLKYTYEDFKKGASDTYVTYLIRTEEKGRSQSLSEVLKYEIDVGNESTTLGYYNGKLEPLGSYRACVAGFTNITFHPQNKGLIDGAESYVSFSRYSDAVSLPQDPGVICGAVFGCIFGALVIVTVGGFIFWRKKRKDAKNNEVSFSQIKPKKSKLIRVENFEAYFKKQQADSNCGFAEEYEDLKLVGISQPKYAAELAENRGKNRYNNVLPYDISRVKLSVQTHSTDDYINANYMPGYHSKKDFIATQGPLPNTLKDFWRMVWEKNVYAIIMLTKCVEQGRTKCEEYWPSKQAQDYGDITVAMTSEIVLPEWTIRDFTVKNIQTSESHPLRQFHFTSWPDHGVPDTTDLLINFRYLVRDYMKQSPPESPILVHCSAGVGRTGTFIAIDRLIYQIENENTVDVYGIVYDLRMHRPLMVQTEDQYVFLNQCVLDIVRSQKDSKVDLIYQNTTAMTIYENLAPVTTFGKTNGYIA
Description: as §1

PTPN1 (PTP1B) = target: T2, PTPN1 (PTP1B) (Homo sapiens, UniProt P18031); experiment: pNPP hydrolysis by PTPN1 (PTP1B) phosphatase; format: biochemical; conditions: untitled table after Table 4; mean, SEM in wrapped line
T2 construct: purchased
T2 sequence (P18031 1-435): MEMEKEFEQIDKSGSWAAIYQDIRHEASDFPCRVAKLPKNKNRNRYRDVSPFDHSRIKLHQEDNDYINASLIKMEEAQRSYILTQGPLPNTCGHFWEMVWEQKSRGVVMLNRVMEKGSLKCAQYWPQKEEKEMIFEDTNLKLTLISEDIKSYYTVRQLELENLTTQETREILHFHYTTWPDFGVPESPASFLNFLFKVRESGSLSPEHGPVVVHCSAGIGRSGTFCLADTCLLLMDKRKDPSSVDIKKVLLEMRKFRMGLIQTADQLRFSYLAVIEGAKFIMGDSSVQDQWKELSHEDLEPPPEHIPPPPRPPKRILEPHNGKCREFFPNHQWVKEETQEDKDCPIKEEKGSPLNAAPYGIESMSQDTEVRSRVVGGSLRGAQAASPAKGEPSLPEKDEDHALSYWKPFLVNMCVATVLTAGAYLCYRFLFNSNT

PTPRF = PTPRF (Homo sapiens, UniProt P10586); experiment: pNPP hydrolysis by recombinant PTPRF phosphatase
Description: as §2, §3

[1] = Table 4, mean (SEM) of three independent experiments, * = instability, no valid triplicate
[2] = untitled table after Table 4, mean, SEM in wrapped line
[3] = read-out: PTPRD IC50, untitled table after Table 4, mean, SEM in wrapped line, compounds with PTPRD IC50 <5 μM
[4] = PTPRF IC50, Table 4, mean (SEM) of three independent experiments, * = instability, no valid triplicate
[5] = PTPRF IC50, untitled table after Table 4, mean, SEM in wrapped line
[6] = PTPRD IC50, Table 4, mean (SEM) of three independent experiments, * = instability, no valid triplicate
[7] = PTPRD IC50, untitled table after Table 4, mean, SEM in wrapped line, compounds with PTPRD IC50 <5 μM

Chain of PTPRS (Q13332 30-1948, species assumed): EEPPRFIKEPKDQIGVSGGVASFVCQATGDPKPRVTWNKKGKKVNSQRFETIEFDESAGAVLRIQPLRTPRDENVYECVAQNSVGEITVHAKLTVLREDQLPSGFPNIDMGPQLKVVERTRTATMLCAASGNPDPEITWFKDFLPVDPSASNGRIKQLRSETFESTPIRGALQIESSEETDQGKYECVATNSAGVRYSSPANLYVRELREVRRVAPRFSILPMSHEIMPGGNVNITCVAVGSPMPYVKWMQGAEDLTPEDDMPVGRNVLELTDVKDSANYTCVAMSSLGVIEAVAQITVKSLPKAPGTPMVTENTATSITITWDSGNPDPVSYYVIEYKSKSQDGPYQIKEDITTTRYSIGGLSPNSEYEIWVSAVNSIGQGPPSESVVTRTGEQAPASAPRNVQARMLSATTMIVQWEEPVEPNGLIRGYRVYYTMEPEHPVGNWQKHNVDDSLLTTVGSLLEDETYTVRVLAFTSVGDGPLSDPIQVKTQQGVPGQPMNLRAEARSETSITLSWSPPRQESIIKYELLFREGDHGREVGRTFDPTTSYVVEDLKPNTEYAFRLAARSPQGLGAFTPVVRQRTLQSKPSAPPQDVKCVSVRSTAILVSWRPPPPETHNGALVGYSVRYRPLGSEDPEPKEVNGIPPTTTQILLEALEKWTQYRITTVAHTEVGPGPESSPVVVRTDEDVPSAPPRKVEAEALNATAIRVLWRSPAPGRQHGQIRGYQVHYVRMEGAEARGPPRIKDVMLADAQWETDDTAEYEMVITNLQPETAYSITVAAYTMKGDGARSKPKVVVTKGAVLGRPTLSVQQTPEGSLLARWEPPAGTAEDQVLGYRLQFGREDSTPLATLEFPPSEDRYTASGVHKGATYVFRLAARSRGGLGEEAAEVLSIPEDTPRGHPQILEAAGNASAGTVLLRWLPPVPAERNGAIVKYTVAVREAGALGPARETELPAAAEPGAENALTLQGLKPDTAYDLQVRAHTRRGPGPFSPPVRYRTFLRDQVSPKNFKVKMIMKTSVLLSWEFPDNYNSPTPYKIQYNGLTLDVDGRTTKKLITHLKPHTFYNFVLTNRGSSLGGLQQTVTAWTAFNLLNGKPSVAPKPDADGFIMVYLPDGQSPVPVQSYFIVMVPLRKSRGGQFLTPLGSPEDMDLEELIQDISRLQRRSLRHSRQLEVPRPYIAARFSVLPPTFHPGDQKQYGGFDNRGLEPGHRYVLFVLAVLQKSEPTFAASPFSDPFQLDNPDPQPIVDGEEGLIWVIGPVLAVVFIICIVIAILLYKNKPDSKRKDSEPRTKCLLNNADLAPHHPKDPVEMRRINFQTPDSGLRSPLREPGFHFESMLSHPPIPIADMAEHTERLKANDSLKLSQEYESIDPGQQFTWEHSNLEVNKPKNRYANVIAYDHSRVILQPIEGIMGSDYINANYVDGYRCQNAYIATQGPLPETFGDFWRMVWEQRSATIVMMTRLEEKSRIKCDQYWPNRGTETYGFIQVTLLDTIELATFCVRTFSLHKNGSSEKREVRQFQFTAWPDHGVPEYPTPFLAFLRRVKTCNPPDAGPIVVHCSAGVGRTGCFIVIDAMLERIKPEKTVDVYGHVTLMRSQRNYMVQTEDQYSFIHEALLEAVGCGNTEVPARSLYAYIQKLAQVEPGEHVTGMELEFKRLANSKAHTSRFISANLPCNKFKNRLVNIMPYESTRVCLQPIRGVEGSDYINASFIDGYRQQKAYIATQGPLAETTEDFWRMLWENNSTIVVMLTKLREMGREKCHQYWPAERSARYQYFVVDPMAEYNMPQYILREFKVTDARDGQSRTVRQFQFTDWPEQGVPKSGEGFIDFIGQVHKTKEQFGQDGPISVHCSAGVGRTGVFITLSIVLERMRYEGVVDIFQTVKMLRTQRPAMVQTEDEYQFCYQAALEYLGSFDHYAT
Chain of PTPRF (P10586 30-1907, species assumed): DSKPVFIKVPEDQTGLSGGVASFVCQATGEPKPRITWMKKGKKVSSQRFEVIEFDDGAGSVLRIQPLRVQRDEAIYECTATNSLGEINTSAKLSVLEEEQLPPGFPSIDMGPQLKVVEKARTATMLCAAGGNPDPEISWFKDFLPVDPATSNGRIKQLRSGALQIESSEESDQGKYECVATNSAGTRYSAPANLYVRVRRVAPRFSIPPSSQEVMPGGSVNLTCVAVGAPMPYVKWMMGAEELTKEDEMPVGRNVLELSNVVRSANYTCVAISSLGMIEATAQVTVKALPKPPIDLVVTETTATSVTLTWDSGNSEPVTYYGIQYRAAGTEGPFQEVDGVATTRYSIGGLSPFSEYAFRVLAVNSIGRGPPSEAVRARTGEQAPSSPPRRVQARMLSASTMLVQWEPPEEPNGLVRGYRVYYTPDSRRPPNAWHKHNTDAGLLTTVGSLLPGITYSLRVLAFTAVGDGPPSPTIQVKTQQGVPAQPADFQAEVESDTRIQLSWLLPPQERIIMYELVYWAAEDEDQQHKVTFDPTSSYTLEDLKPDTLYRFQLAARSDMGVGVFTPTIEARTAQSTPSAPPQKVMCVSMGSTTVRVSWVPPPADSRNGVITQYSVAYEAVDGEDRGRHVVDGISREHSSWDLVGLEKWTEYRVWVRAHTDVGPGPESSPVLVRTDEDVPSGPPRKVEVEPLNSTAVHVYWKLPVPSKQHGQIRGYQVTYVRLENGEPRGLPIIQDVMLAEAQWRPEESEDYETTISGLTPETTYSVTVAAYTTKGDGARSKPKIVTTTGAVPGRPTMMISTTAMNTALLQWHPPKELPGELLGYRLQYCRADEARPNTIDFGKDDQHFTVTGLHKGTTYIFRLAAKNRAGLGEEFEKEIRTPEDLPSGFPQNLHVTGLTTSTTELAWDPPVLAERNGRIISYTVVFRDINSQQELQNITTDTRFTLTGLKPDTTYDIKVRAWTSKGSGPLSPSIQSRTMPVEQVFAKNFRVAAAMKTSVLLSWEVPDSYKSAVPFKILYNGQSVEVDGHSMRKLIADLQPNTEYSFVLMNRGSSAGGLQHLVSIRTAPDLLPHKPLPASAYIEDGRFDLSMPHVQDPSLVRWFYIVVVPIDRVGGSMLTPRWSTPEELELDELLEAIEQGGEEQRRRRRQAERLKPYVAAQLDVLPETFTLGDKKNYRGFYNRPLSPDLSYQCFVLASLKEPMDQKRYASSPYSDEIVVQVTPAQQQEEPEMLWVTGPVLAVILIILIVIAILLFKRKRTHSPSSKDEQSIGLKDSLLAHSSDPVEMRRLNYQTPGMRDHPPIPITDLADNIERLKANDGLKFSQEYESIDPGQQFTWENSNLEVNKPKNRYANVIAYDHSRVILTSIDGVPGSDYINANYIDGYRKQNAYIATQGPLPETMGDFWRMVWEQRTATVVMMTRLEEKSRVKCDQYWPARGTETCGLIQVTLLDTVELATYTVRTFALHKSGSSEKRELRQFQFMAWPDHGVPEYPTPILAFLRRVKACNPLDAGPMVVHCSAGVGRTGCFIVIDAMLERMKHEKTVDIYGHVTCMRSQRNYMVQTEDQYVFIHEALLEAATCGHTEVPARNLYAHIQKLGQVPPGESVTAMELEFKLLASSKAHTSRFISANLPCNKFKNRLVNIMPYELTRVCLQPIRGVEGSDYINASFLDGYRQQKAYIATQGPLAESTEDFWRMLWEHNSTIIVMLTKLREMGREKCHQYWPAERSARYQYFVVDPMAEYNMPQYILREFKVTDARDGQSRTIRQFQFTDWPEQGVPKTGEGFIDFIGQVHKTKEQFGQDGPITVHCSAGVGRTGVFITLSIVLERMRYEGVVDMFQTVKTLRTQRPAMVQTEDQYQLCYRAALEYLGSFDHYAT

| Compound | IC50 (PTPRS; [1]) [µM] | IC50 (PTPRS; [2]) [µM] | IC50 (recombinant PTPRD; read-out: PTPRD IC50, Table 4, mean (SEM) of three independent experiments, * = instability, no valid triplicate) [µM] | IC50 (recombinant PTPRD; [3]) [µM] | IC50 (PTPRJ; [1]) [µM] | IC50 (PTPRJ; [2]) [µM] | IC50 (PTPN1 (PTP1B)) [µM] | IC50 (PTPRF; [4]) [µM] | IC50 (PTPRF; [5]) [µM] | IC50 (recombinant PTPRD; [6]) [µM] | IC50 (recombinant PTPRD; [7]) [µM] |
| --- | --- | --- | --- | --- | --- | --- | --- | --- | --- | --- | --- |
| COc1cccc(COc2cc3c(c(C=O)c2OC)CC(O)OC3=O)c1 (centres unmarked) [Compound 31, 3-Hydroxy-6-methoxy-7-((3-methoxybenzyl)oxy)-1-oxoisochromane-5-carbaldehyde] | 13 | 3.25 | – | – | – | 62.8 | 203 | – | 5.73 | 4.12 | 5.64 |
| COc1c(OCc2ccc(Cl)cc2Cl)cc2c(c1C=O)CC(O)OC2=O (centres unmarked) [Compound 40, 7-((2,4-Dichlorobenzyl)oxy)-3-hydroxy-6-methoxy-1-oxoisochromane-5-carbaldehyde] | 1.03 | 1.03 | – | – | 14.6 | 14.6 | 76 | 3.55 | 3.55 | – | – |
| COc1c(OCc2c(Cl)cc(Cl)cc2Cl)cc2c(c1C=O)CC(O)OC2=O (centres unmarked) [Compound 42] | 2.15 | 2.2 | – | – | 23.6 | 23.6 | 28.9 | – | – | 2.47 | 2.5 |
| COc1c(OCc2ccc(Oc3ccccc3)cc2)cc2c(c1C=O)CC(O)OC2=O (centres unmarked) [Compound 43, 3-Hydroxy-6-methoxy-1-oxo-7-((4-phenoxybenzyl)oxy)isochromane-5-carbaldehyde] | 1.34 | 1.34 | – | – | 28.4 | 28.4 | 16.7 | 3.93 | 3.93 | 1.6 | 1.6 |
| COc1c(OCc2ccc(Oc3ccc(F)cc3)cc2)cc2c(c1C=O)CC(O)OC2=O (centres unmarked) [Compound 44, 7-((4-(4-Fluorophenoxy)benzyl)oxy)-3-hydroxy-6-methoxy-1-oxoisochromane-5-carbaldehyde] | – | – | – | – | – | – | – | – | – | 2.49 | 2.49 |
| COc1c(OCc2ccc3ccccc3c2)cc2c(c1C=O)CC(O)OC2=O (centres unmarked) [Compound 49, 3-Hydroxy-6-methoxy-7-(naphthalen-2-ylmethoxy)-1-oxoisochromane-5-carbaldehyde] | 4.61 | 4.61 | – | – | 33.3 | 33.3 | 221 | 5.87 | 5.87 | – | – |
| COc1c(OCCCc2ccccc2)cc2c(c1C=O)CC(O)OC2=O (centres unmarked) [Compound 52, 3-Hydroxy-6-methoxy-1-oxo-7-(3-phenylpropoxy)isochromane-5-carbaldehyde] | 0.93 | 0.93 | – | – | – | – | – | 4.41 | 4.41 | – | – |
| COc1c(OCCCCc2ccc(Cl)cc2)cc2c(c1C=O)CC(O)OC2=O (centres unmarked) [Compound 53, 7-(4-(4-Chlorophenyl)butoxy)-3-hydroxy-6-methoxy-1-oxoisochromane-5-carbaldehyde] | 3.09 | 3.09 | – | – | 28.9 | 28.9 | 65.7 | 5.67 | 5.67 | – | – |
| COc1c(OCCCCc2ccc(O)cc2O)cc2c(c1C=O)CC(O)OC2=O (centres unmarked) [Compound 55] | 2.27 | 2.27 | – | – | 55.5 | 55.5 | 320 | 6.8 | 6.8 | 4.45 | 4.45 |
| COc1c(OCCCC(F)(F)F)cc2c(c1C=O)CC(O)OC2=O (centres unmarked) [Compound 63, 3-Hydroxy-6-methoxy-1-oxo-7-(4,4,4-trifluorobutoxy)isochromane-5-carbaldehyde] | – | – | – | – | – | 108 | – | – | – | – | – |

Other lines, results leading:

| IC50 (PTPRS; [1]) [µM] | IC50 (PTPRS; [2]) [µM] | IC50 (recombinant PTPRD; read-out: PTPRD IC50, Table 4, mean (SEM) of three independent experiments, * = instability, no valid triplicate) [µM] | IC50 (recombinant PTPRD; [3]) [µM] | IC50 (PTPRJ; [1]) [µM] | IC50 (PTPRJ; [2]) [µM] | IC50 (PTPN1 (PTP1B)) [µM] | IC50 (PTPRF; [4]) [µM] | IC50 (PTPRF; [5]) [µM] | IC50 (recombinant PTPRD; [6]) [µM] | IC50 (recombinant PTPRD; [7]) [µM] | Compound |
| --- | --- | --- | --- | --- | --- | --- | --- | --- | --- | --- | --- |
| 1.27 | 1.27 | 2.27 | 2.27 | 27.4 | 27.4 | 215 | 3.95 | 3.95 | – | – | CCCCOc1cc2c(c(C=O)c1OC)CC(O)OC2=O (centres unmarked) [Compound 1, reference compound] |
| 1.6 | 1.6 | – | 1.64 | 47.2 | 47.2 | 171 | 3.62 | 3.62 | – | – | COc1c(OCc2ccccc2)cc2c(c1C=O)CC(O)OC2=O (centres unmarked) [Compound 27, 7-(Benzyloxy)-3-hydroxy-6-methoxy-1-oxoisochromane-5-carbaldehyde] |
| 3.58 | 3.58 | – | – | 37.7 | 37.7 | 148 | 6.57 | 6.57 | 3.8 | 3.8 | COc1c(OCc2ccc(C)cc2)cc2c(c1C=O)CC(O)OC2=O (centres unmarked) [Compound 29, 3-Hydroxy-6-methoxy-7-((4-methylbenzyl)oxy)-1-oxoisochromane-5-carbaldehyde] |
| 5 | 5 | – | – | 29.9 | 29.9 | – | 3.82 | 3.82 | – | – | COc1c(OCc2ccc(Br)cc2)cc2c(c1C=O)CC(O)OC2=O (centres unmarked) [Compound 39, 7-((4-Bromobenzyl)oxy)-3-hydroxy-6-methoxy-1-oxoisochromane-5-carbaldehyde] |
| 1.4 | 1.4 | – | – | 19.8 | 19.8 | – | 3.5 | 3.5 | 0.92 | 0.92 | COc1c(OCc2ccc(C)s2)cc2c(c1C=O)CC(O)OC2=O (centres unmarked) [Compound 46, 3-Hydroxy-6-methoxy-7-((5-methylthiophen-2-yl)methoxy)-1-oxoisochromane-5-carbaldehyde] |
| 3.03 | 3.03 | – | – | 54.8 | 54.8 | 219 | – | – | 4.57 | 4.57 | COc1c(OCCc2ccccc2)cc2c(c1C=O)CC(O)OC2=O (centres unmarked) [Compound 50, 3-Hydroxy-6-methoxy-1-oxo-7-phenethoxyisochromane-5-carbaldehyde] |
| – | – | – | – | – | – | – | – | – | 4.18 | 4.18 | COc1c(OCC2CC2)cc2c(c1C=O)CC(O)OC2=O (centres unmarked) [Compound 64, 7-Cyclopropylmethoxy-3-hydroxy-6-methoxy-1-oxo-isochroman-5-carbaldehyde] |
| 1.06 | 1.06 | – | – | – | 0.56 | 101 | 0.76 | 0.76 | – | – | COc1c(OCC2CCCCC2)cc2c(c1C=O)CC(O)OC2=O (centres unmarked) [Compound 68, 7-Cyclohexylmethoxy-3-hydroxy-6-methoxy-1-oxo-isochroman-5-carbaldehyde] |
| 0.77 | 0.77 | – | – | 9.81 | 9.8 | 27.1 | 1.16 | 1.16 | – | – | COc1c(OCC2CCCCCC2)cc2c(c1C=O)CC(O)OC2=O (centres unmarked) [Compound 69] |
